Laboratory results: patent US20130071897A1, “METHOD FOR CONTROLLING UNDESIRABLE BYPRODUCTS FORMATION CAUSED BY CONTAMINATING ORGANISMS IN THE PRODUCTION OF ETHANOL FROM SYNGAS” (COSKATA, INC., priority 2011, published 2013)
“And” between values parts separate entries of the source, which are not always exact repeats. Equal entries are not always repeated.

How the values were obtained:
C. autoethanogenum [1] = assay: Balch tube batch growth of homoacetogen C. autoethanogenum on fructose, optical density; format: cell-based; details: added 21 h after inoculation
Experimental: These compounds were first tested to determine their effect on a known homoacetogen. Each compound was tested in a series of batch experiments to determine the growth response of a homoacetogen to the presence of the compound at varying concentrations. The batch experiments were all conducted by anoxically filling a Balch tube with 5 ml of a fermentation medium having the composition given in Tables 2 and 3. To expedite results, these batch experiments used fructose as the growth nutrient source for bacteria. Thus, the media included a 5 g/L of fructose.
Each tube was inoculated with 0.5 ml of the same strain of C. autoethanogenum bacteria seed culture inoculum. The tubes were maintained at a temperature of 37° C. Twenty one hours after the inoculation of the tube with the bacteria, the different crotonate derivatives from Table 1 were added to different tubes in the amounts indicated in Table 4 This was at a time of early to mid-log phase growth for the bacteria. Each fermentation of the bacteria in the media at the different concentration of crotonate derivatives were allowed to progress and were monitored to determine the bacteria growth at selected intervals of time varying from approximately 20 hours to 190 hours. Growth at the intervals was measured by reading the optical density (OD) of the fermentation liquid. Optical density was measured using a Spectronic Spec 20 (Thermo Spectronic) at a wavelength of 600 nm. The OD of the Balch tube culture was measured directly in the tube using absorbance mode on the Spec 20 machine. The machine was set to zero absorbance by first measuring and adjusting the setting to zero absorbance using media only as a blank. This process was repeated at each indicated time point throughout the experiment. The ability of a tube fermentation at a particular concentration of crotonate derivative to reach a predetermined optical density was recorded in Table 4. Table 4 indicates the presence of bacterial growth to an OD of approximately 2 or above with a “+”, and to an optical density in a range of 0.5 to 1.5 as a “+/−”, and indicates the failure of bacterial growth to reach an optical density of approximately 0.5 as a “−”.

[2] = tested on: Clostridium tyrobutyricum; assay: Balch tube batch growth of strict butyrogen Clostridium tyrobutyricum on fructose, optical density; format: cell-based; details: added 21 h after inoculation
Experimental: Similar experiments were conducted to make a preliminary determination as to which of the crotonate and crotonate-like compounds would act as butyrogen retardants. For this purpose the selected compounds were tested again in a series of batch experiments to determine the growth response of butyrogens to the presence of the compound at varying concentrations. The batch experiments were all conducted by anoxically filling a 20 ml Balch tube with 5 ml of a fermentation medium having the composition given in Tables 2 and 3. The media included 0.5 v/v final concentration of a fructose substrate. For each of the crotonate concentrations tested, duplicate test tubes were prepared.
Each tube was inoculated with 0.5 ml seed culture inoculum of the strict butyrogen Clostridium tyrobutyricum. The tubes were maintained at a temperature of 37° C. Twenty one hours after the inoculation of the tube with the bacteria, the different compounds from Table 1 were added to different tubes in the amounts indicated in Table 6. This was at a time of early to mid-log phase growth for the bacteria. Each fermentation of the bacteria in the media at the different concentration of crotonate derivatives were allowed to progress and were monitored to determine the bacteria growth at selected intervals of time varying from approximately 20 hours to 54 hours. Growth at the intervals was measured by reading the optical density (OD) of the fermentation liquid. Optical density was measured as described in Example 1. The ability of a tube fermentation at a particular concentration of crotonate derivative to reach a predetermined optical density was recorded in Table 6. Table 6 indicates the presence of bacterial growth to an OD of approximately 1.8 or above with a “+”, and to an optical density in a range of 0.7 to 1.5 as a “+/−”, and indicates the failure of bacterial growth to reach an optical density of approximately 0.7 as a “−”.

acyl-CoA dehydrogenases = assay: In vitro acyl-CoA dehydrogenase ferrocenium assay with C. tyrobutyricum cell-free extract; format: biochemical; details: 0.5 to 10 mM compound; rate of ferrocenium reduction at 300 nm
Experimental: Lehman, et al., in An Acyl-Coenzyme A Dehydrogenase Assay Utilizing the Ferricenium Ion, Analytical Biochemistry 186, pages 280-284 (1990), disclose an in vitro assay screening technique for acyl-CoA dehydrogenases for determining enzyme deficiencies in children. An adaptation of this technique was explored as a potential screening method for ascertaining potential butyrogen inhibitors. An aqueous assay liquor is prepared such that each 1 milliliter sample contains 50 mM of TrisHCl buffer (pH 7.6); 0.05 mM of butyryl-CoA; 5 micromoles of FAD (flavin adenine dinucleotide) and 0.4 mM of ferrocenium. Whole cells of C. tyrobutyricum are lysed and are added to the assay liquor. […] The abbreviation mM stands for millimolar. To assure metabolic consistency among the samples a master batch of C. tyrobutyricum is prepared and harvested at the early log growth stage (approximate O.D. of between about 0.5 and 0.7). The master batch fermentation broth is centrifuged and rinsed with 50 mM TrisHCl buffer (pH 7.6), centrifuged and reconstituted with 50 mM TrisHCl buffer (pH 7.6) to be 10 times more concentrated than the original master batch. Aliquots of about 0.5 milliliter are placed into cryogenic vials (about 1.8 milliliter capacity) and frozen at −80° C. until needed. When needed, a vial is placed in an anoxic Coy chamber and allowed to thaw to room temperature. Once thawed, the cells are added to a 15 mL centrifuge tube and diluted with 0.5 mL of a 2 mg/mL solution of lysozyme (purchased from Aldrich) in 50 mM Tris-HCl (final concentration of lysozyme is about 1 mg/mL). The centrifuge tube is inverted 5 times, removed from the Coy chamber and allowed to incubate at 37° C. for 30 minutes. […] The centrifuge tube is vortexed in the Coy chamber for about 30 seconds, removed from the chamber and centrifuged for 15 minutes at 4000 rpm and 4° C. The tube is returned to the chamber and the cell-free extract (supernatant) is used to prepare the above described samples. The samples are analyzed at various times by absorbance spectroscopy at 300 nm using a Thermo Scientific Evolution 300 UV/Vis spectrophotometer with a 7-cuvette carousel and Starna quartz cuvettes with a septum cap to determine the amount of reduction of ferrocenium. The sample is at laboratory temperature and is maintained under anaerobic conditions. Typically, the absorbance is measured over a period of about 10 to 20 minutes which is sufficient time for the absorbance to stop changing. A linear slope of the rate of change in absorbance during the period that the absorbance is changing is determined using Microsoft Excel® 2010 linear regression to generate a straight line from the data points. The more gradual the slope, the better inhibition because the enzyme is slower at reducing the ferrocenium in the assay sample. A dose-response curve is then determined for each compound by plotting the linear slope against the respective compound concentration. A linear slope is then determined for each compound using Microsoft Excel® 2010 linear regression to generate a straight line from the data points. The steeper the dose-response slope, the better the inhibition because the increased concentration of the compound causes more of a difference in enzyme activity. The dose-response slope generally has a broad standard of deviation due to experimental imprecision and slope determinations.

C. autoethanogenum [3] = assay: Toxicity to C. autoethanogenum by batch fermentation using syngas substrate, optical density; format: cell-based, Clostridium autoethanogenum; details: for O.D. Response of Various Inhibitors on C. autoethanogenum: Table 21, one value per compound; for O.D. Response to Various Inhibitors: duplicates A and B, amount not given
Experimental: In this example various crotonate-like compounds on are evaluated for toxicity to C. autoethanogenum by batch fermentation using syngas substrate. The batch fermentations are conducted by anoxically filling 100 mL serum bottles with 10 mL of media having the composition given in Tables 12 and 13. Duplicate runs are conducted for each concentration. The compounds are: • C-1 Ethyl 4,4,4-trifluoro-3-(trifluoromethyl)crotonate • C-4 4,4,4-Trifluorocrotonamide • C-9 Ethyl 4,4,4-Trifluoro-3-(amino)crotonate • C-18 3 trifluoromethyl-4-methoxybenzoate.
Each bottle is inoculated with 1.0 mL of seed culture inoculum from an active fermenter using syngas substrate and containing Clostridium autoethanogenum, which inoculum has an OD of about 4.92 (which upon a 10 times dilution provides a starting OD for the fermentation of about 0.49). The bottles are gased with syngas to about 100 kilopascals and maintained at a temperature of 37° C. The bottles are regassed with syngas every 8 to 12 hours. The syngas has the approximate composition set forth in Examples 6 to 10. Twenty four hours after inoculation of the bottles with the bacteria, the compounds are added to different bottles as a solution in 50 μL of N-methylpyrrolidone in the amounts indicated in Tables 20 and 21. The fermentation process is allowed to progress at 37° C. At selected intervals of time, bacterial growth is measured by reading the OD of the fermentation liquid using a Thermo Spectronic Genesys 20 spectrophotometer. Optical density is measured by anoxically removing an aliquot of fermentation liquid and adding it to a disposable cuvette. OD's ranging between 0.01 and 0.4 are measured using fermentation liquid directly, while OD's greater than 0.4 are measure after performing a 1/10 dilution with water.

[4] = 0 Hours, added 24 h after inoculation
[5] = 2.5 Hours, added 24 h after inoculation
[6] = 6.5 Hours, added 24 h after inoculation
[7] = 24.5 Hours, added 24 h after inoculation

CCOC(=O)/C(C)=C/C(F)(F)F [F, ethyl-2-methyl-4,4,4-trifluorocrotonate, reference compound]
Optical density valuation of C. autoethanogenum (C. autoethanogenum [1]; 10 ppm(m)): + (bacterial growth to an OD of approximately 2 or above)
Optical density valuation of C. autoethanogenum (C. autoethanogenum [1]; 100 ppm(m)): + (bacterial growth to an OD of approximately 2 or above)
Optical density valuation of C. autoethanogenum (C. autoethanogenum [1]; 500 ppm(m)): + (bacterial growth to an OD of approximately 2 or above)
Optical density valuation of C. autoethanogenum (C. autoethanogenum [1]; 1000 ppm(m)): + (bacterial growth to an OD of approximately 2 or above)
Optical density valuation of C. autoethanogenum (C. autoethanogenum [1]; 5000 ppm(m)): +/− (to an optical density in a range of 0.5 to 1.5)
Optical density valuation of C. autoethanogenum (C. autoethanogenum [1]; 10000 ppm(m)): − (failure of bacterial growth to reach an optical density of approximately 0.5)
Optical density valuation of C. tyrobutyricum ([2]; 100 ppm(m)): + (bacterial growth to an OD of approximately 1.8 or above)
Optical density valuation of C. tyrobutyricum ([2]; 500 ppm(m)): + (bacterial growth to an OD of approximately 1.8 or above)
Optical density valuation of C. tyrobutyricum ([2]; 1000 ppm(m)): + (bacterial growth to an OD of approximately 1.8 or above)
Dose-Response Slope (acyl-CoA dehydrogenases): 2

C/C=C/C(=O)OC(C)(C)C [C, Tert-butyl crotonate, reference compound]
Optical density valuation of C. autoethanogenum (C. autoethanogenum [1]; 10 ppm(m)): + (bacterial growth to an OD of approximately 2 or above)
Optical density valuation of C. autoethanogenum (C. autoethanogenum [1]; 100 ppm(m)): + (bacterial growth to an OD of approximately 2 or above)
Optical density valuation of C. autoethanogenum (C. autoethanogenum [1]; 500 ppm(m)): + (bacterial growth to an OD of approximately 2 or above)
Optical density valuation of C. autoethanogenum (C. autoethanogenum [1]; 1000 ppm(m)): + (bacterial growth to an OD of approximately 2 or above)
Optical density valuation of C. autoethanogenum (C. autoethanogenum [1]; 5000 ppm(m)): + (bacterial growth to an OD of approximately 2 or above)
Optical density valuation of C. autoethanogenum (C. autoethanogenum [1]; 10000 ppm(m)): − (failure of bacterial growth to reach an optical density of approximately 0.5)
Optical density valuation of C. tyrobutyricum ([2]; 100 ppm(m)): + (bacterial growth to an OD of approximately 1.8 or above)
Optical density valuation of C. tyrobutyricum ([2]; 500 ppm(m)): + (bacterial growth to an OD of approximately 1.8 or above)
Optical density valuation of C. tyrobutyricum ([2]; 1000 ppm(m)): + (bacterial growth to an OD of approximately 1.8 or above)
Dose-Response Slope (acyl-CoA dehydrogenases): 6

CCOC(=O)/C=C/C(F)(F)F [E, ethyl 4,4,4-trifluorocrotonate]
Optical density valuation of C. autoethanogenum (C. autoethanogenum [1]; 10 ppm(m)): + (bacterial growth to an OD of approximately 2 or above)
Optical density valuation of C. autoethanogenum (C. autoethanogenum [1]; 100 ppm(m)): + (bacterial growth to an OD of approximately 2 or above)
Optical density valuation of C. autoethanogenum (C. autoethanogenum [1]; 500 ppm(m)): + (bacterial growth to an OD of approximately 2 or above)
Optical density valuation of C. autoethanogenum (C. autoethanogenum [1]; 1000 ppm(m)): + (bacterial growth to an OD of approximately 2 or above)
Optical density valuation of C. autoethanogenum (C. autoethanogenum [1]; 5000 ppm(m)): − (failure of bacterial growth to reach an optical density of approximately 0.5)
Optical density valuation of C. autoethanogenum (C. autoethanogenum [1]; 10000 ppm(m)): − (failure of bacterial growth to reach an optical density of approximately 0.5)
Optical density valuation of C. tyrobutyricum ([2]; 100 ppm(m)): + (bacterial growth to an OD of approximately 1.8 or above)
Optical density valuation of C. tyrobutyricum ([2]; 500 ppm(m)): + (bacterial growth to an OD of approximately 1.8 or above)
Optical density valuation of C. tyrobutyricum ([2]; 1000 ppm(m)): + (bacterial growth to an OD of approximately 1.8 or above)
Dose-Response Slope (acyl-CoA dehydrogenases): 6

NC(=O)/C=C/C(F)(F)F [Compound C-4, 4,4,4-Trifluorocrotonamide]
O.D. Response of Various Inhibitors on C. autoethanogenum (C. autoethanogenum [3]; [4]): 0.49
O.D. Response of Various Inhibitors on C. autoethanogenum (C. autoethanogenum [3]; [5]): 0.41
O.D. Response of Various Inhibitors on C. autoethanogenum (C. autoethanogenum [3]; [6]): 0.42
O.D. Response of Various Inhibitors on C. autoethanogenum (C. autoethanogenum [3]; [7]): 1.06
O.D. Response of Various Inhibitors on C. autoethanogenum (C. autoethanogenum [3]; 30.5 Hours): 1.32
O.D. Response of Various Inhibitors on C. autoethanogenum (C. autoethanogenum [3]; 47.5 Hours): 1.67
O.D. Response of Various Inhibitors on C. autoethanogenum (C. autoethanogenum [3]; 56 Hours): 1.72
O.D. Response to Various Inhibitors (C. autoethanogenum [3]; [4]): 0.49
O.D. Response to Various Inhibitors (C. autoethanogenum [3]; [5]): 0.40 and 0.42
O.D. Response to Various Inhibitors (C. autoethanogenum [3]; [6]): 0.4 and 0.43
O.D. Response to Various Inhibitors (C. autoethanogenum [3]; [7]): 1.03 and 1.09
O.D. Response to Various Inhibitors (C. autoethanogenum [3]; 30.5 Hours, added 24 h after inoculation): 1.31 and 1.33
O.D. Response to Various Inhibitors (C. autoethanogenum [3]; 47.5 Hours, added 24 h after inoculation): 1.7 and 1.64
Dose-Response Slope (acyl-CoA dehydrogenases): 8
